Patent US20120122956A1, “METHODS FOR INHIBITING AN[…] MULTI-ARM POLYMERIC CONJUGATES OF 7-ETHYL-10-HYDROXYCAMPTOTHECIN” (ENZON PHARMACEUTICALS, INC., priority 2009, published 2012)

Tests used:
[1] = Solubility in aqueous saline solution; format: physicochemical
[2] = Pharmacokinetics in rats; format: in vivo
Experimental: Additionally, pharmacokinetic profiles of 4arm PEG-Gly-(7-ethyl-10-hydroxycamptothecin) were investigated in rats. In rats, dose levels of 3, 10 and 30 mg/kg (7-ethyl-10-hydroxycamptothecin equivalent) were used. The pharmacokinetic profiles in rats were consistent with those of mice.

[3] = Pharmacokinetics in tumor free Balb/C mice; format: in vivo
Experimental: Tumor free Balb/C mice were injected with a single injection of 20 mg/kg 4armPEG-Gly-(7-ethyl-10-hydroxycamptothecin) conjugates. At various time points mice were sacrificed and plasma was analyzed for intact conjugates and released 7-ethyl-10-hydroxycamptothecin by HPLC. Pharmacokinetic analysis was done using non-compartmental analysis (WinNonlin).

[4] = system: HIF-1α; experiment: HIF-1-dependent luciferase expression in U251-HRE human glioma xenografts; format: in vivo, mice; settings: for luminescence (HIF-1-dependent luciferase): single dose or multiple doses, 48 hour and 120 hour time points, not normalized
Experimental: The effect was measured by HIF-1-dependent luciferase expression in the U251-HRE xenografts.
(§1) The human glioma cell line, U251-HRE was kindly provided by Dr. Giovanni Melillo at National Cancer Institute (Frederick, Md., United States). The cells were transfected with luciferase reporter plasmids containing three copies of a canonical hypoxia response element (HRE) from the inducible nitric oxide synthase gene (Rapsirada, et al. 2000). U251-HRE tumors were established in the right axillary flank of female Harlan Sprague-Dawley nude mice (Harlan World, Indianapolis, Ind.) by subcutaneous injection of 1×10^7 U251-HRE cells/mouse. […] At each treatment time point, the tumor volume measurements were recorded and the tumor weights (mg) calculated using mg=[tumor length×(tumor width)]/2. […] To do so, the mice were injected intraperineally with 150 mg/kg of D-luciferin Firefly, potassium salt (Biosynth International, Inc., Itasca, Ill.). After 10 minutes, the mice were anesthetized via isofluorane gas and imaged using the Xenogen IVIS 100 Imaging Station (Xenogen Corp., Alameda, Calif.).

[5] = system: CAMs grafted with tumor biopsy specimens of HTLA-230 or GI-LI-N xenografts; settings: for number of allantoic vessels radiating towards the tumor specimen: compared to control CAMs, CPT-11 10 or 40 mg/kg, compound 9 10 mg/kg (SN38 based)
Experimental: Protoc. 2006, 1:85-91. Mice were injected with the human NB cell line, HTLA-230 or GI-LI-N. Tumor biopsy specimens in size of 1-2 mm^3 were obtained from the xenografted mice and then grafted onto the CAMs. […] In the control group, the CAMs were incubated with PBS buffer. […] The CAMs were examined daily for 12 days and photographed in ovo with a stereomicroscope equipped with a camera and image analyzer system (Olympus Italia, Italy). CD31-positive microvessels were measured and normalized with that of the control group. Less CD31-positive microvessels mean greater antiangiogenic effects. Microvessel density was represented by the percentage of the total number of intersection points occupied by CD31-positive vessels cut transversely (diameter of 3-10 μm). Mean values±SD were determined for each analysis.

[6] = system: U251-HRE xenografts; settings: zero to 125 hours of treatment (FIG. 13)
Excerpt: as §1

[7] = 7-ethyl-10-hydroxycamptothecin formation from conjugates in mouse plasma; format: in vitro ADME
[8] = Hydrolysis in human plasma (conjugate half life, 7-ethyl-10-hydroxycamptothecin formation); format: in vitro ADME
Experimental: In human plasma, 7-ethyl-10-hydroxycamptothecin was steadily released from the PEG conjugates with a doubling time of 22 to 52 minutes and the release appeared to be pH and concentration dependent as described in the following EXAMPLE 24.

[9] = 7-ethyl-10-hydroxycamptothecin formation from conjugates in rat plasma; format: in vitro ADME
[10] = system: HIF-2α; settings: GI-LI-N, HTLA-230, SH-SY5Y cells, 24 and 48 hours
Experimental: (§2) The cancer cells were grown in complete DMEM or RPMI-1640 medium, supplemented with 10% heat-inactivated FCS, as described in Pastorino F. et al., Cancer Res. 2006, 66:10073-82, 2006; Pastorino F. et al., Clin. Cancer Res. 2008, 14:7320-9; and Brignole C, et al., J. Nat'l. Cancer Inst. 2006, 98:1142-57). […] In some experiments (FIGS. 14(B) and (C)), the cancer cells were pre-incubated with 0.15 mM of Desferal (DFX or Deferoxamine purchased from Novartis Pharma in Stein, Swizerland) for 6 hours to induce HIF-1α. […] The cells were collected and western blotting analysis was performed using cell lysates as described in Pagnan G. et al., Clin. Cancer Res. 2009, 15:1199-209). Monoclonal anti-p53 (clone PAb 1801) and anti-HIF-1α (clone 54) were purchased from BD Biosciences (Buccinasco, Mich., Italy). Anti-HIF-2α (clone ep190b), and an anti-GAPDH (clone 14c10) antibodies were from Novus Biologicals, Inc (Cambridge, UK) and Cell Signaling Technology (Danvers, Mass., US), respectively.

[11] = system: HIF-1α
Experimental: as §2

[12] = system: human neuroblastoma cells (GI-LI-N) xenograft tumors; settings: compared to mice treated with CAMPTOSAR; 10 mg/kg i.v. q2d×5
Experimental: (§3) Xenograft tumors were established in mice by injecting human neuroblastoma cells (GI-LI-N) in the adrenal gland at day 0 (T0). […] The control group mice received HEPES-buffered saline solution. Histological examination was performed on the tumors removed from the mice at day 44 (T44).
The tissue sections removed from the treated mice in Example 27 were immunostained with TUNEL to evaluate apoptosis, and with primary antibody against histone H2ax (H2AFX) to evaluate DNA-damage dependent histone phosphorylation.

[13] = system: human neuroblastoma cells (GI-LI-N) xenograft tumors; experiment: Tumor angiogenesis and invasion in orthotopic GI-LI-N xenografted mice (VEGF, CD31, MMP-2, MMP-9 staining); format: in vivo
Experimental: as §3
The tissue sections were stained with antibodies against VEGF and CD31 to evaluate inhibition of angiogenesis. […] Cell nuclei were stained with DAPI. Morphometric analysis was performed on 9 randomly selected fields every 3 sections, observed at 200× magnification with an Olympus photomicroscope, using Image Analysis software (Olympus Italia). […] The sections were then washed twice in PBS and saturated with 2% BSA in PBS. In the morphometric analysis, the mean value in each image from the section, the final mean value for all the images and the SEM were calculated. The statistical significance of the differences between the mean values of the different experimental conditions was determined by Student's t test (GraphPad software). Findings were considered significant at P values <0.05 for all statistical evaluations.

[14] = released 7-ethyl-10-hydroxycamptothecin
[15] = 7-ethyl-10-hydroxycamptothecin released from Compound 9, single injection 20 mg/kg of conjugate
[16] = multiple doses at MTD (q2d×3, day 0, 2, 4; compound 9 10 mg/kg, CPT-11 40 mg/kg), 120 hours
[17] = 10 mg/kg i.v. q2d×5, tumors removed day 44
[18] = significantly when compared to Camptosar (P<0.05), 10 mg/kg i.v. q2d×5

In the case of CCc1c2c(nc3ccc(O)cc13)-c1cc3c(c(=O)n1C2)COC(=O)[C@]3(O)CC [7-ethyl-10-hydroxycamptothecin], the “Solubility in Saline” value [1] is reported as “^a7-ethyl-10-hydroxycamptothecin is not soluble in saline”, the “apparent elimination half life” value ([2]; 7-ethyl-10-hydroxycamptothecin released from 4armPEG-Gly conjugate) is reported as 21 to 22 h and the Enterohepatic circulation [2, 14] is reported as “observed”. The clearance [2, 14] was 0.131 L/h/kg, the “estimated Vss” value [2, 14] was 2.384 L/kg and the AUC [3, 15] was 98.3 µg·h/mL. For the same compound, the CL [3, 15] was 0.202 L/h/kg, the Cmax [3, 15] was 13.2 µg/mL and the “Terminal t1/2” value [3, 15] was 14.2 h. The Vss [3, 15] was 3.094 L/kg, the terminal elimination half-life ([3]; 7-ethyl-10-hydroxycamptothecin released from the conjugate, mice) was 18 to 26 h and the Enterohepatic circulation ([3]; released 7-ethyl-10-hydroxycamptothecin, mice) was “observed”.
In the case of CCc1c2c(nc3ccc(OC(=O)N4CCC(N5CCCCC5)CC4)cc13)-c1cc3c(c(=O)n1C2)COC(=O)[C@]3(O)CC [CPT-11, reference compound], the “downregulation of HIF-1α (luminescence normalized for tumor mass, change from baseline)” value ([4]; multiple doses (q2d×3, CPT-11 40 mg/kg), 48 hours) is reported as 15%, the “downregulation of HIF-1α (luminescence normalized for tumor mass, change from baseline)” value [4, 16] is reported as 32% and the “luminescence (HIF-1-dependent luciferase)” value [4] is reported as “minimal effect”. The “downregulation of HIF-1α” value ([4]; single injection (qd×1, CPT-11 80 mg/kg)) was “no downregulation”, the “number of allantoic vessels radiating towards the tumor specimen” value [5] was “decreased” and the tumor mass [6] was “reduced”.
In the case of “^40K4arm-PEG-Sar-(20)-(7-ethyl-10-hydroxycamptothecin) [Compound 23]”, the “Doubling Time in Plasma, Mouse (7-ethyl-10-hydroxycamptothecin formation rate from conjugates)” value (“Doubling Time in Plasma, Mouse” for short) [7] is reported as 43.4 min, the “Doubling Time in Plasma, Human (7-ethyl-10-hydroxycamptothecin formation rate from conjugates)” value (shortened to “Doubling Time in Plasma, Human”) [8] is reported as 28.8 min and the “t1/2 in Human Plasma (PEG conjugate half life)” value (“t1/2 in Human Plasma” below) [8] is reported as 0.317 h. For the same compound, the “Doubling Time in Plasma, Rat (7-ethyl-10-hydroxycamptothecin formation rate from conjugates)” value (“Doubling Time in Plasma, Rat” below) [9] was 481 min.
For “^40k4arm-PEG-Ala-(20)-(7-ethyl-10-hydroxycamptothecin) [Compound 12]”, the “Doubling Time in Plasma, Mouse” value [7] was 45.8 min, the “Doubling Time in Plasma, Human” value [8] was 51.9 min and the “t1/2 in Human Plasma” value [8] was 0.208 h. For the same compound, the “Solubility in Saline” value [1] was 121 mg/mL and the “Doubling Time in Plasma, Rat” value [9] was 753 min.
With “^40k4arm-PEG-Gly(20)-(7-ethyl-10-hydroxycamptothecin) [Compound 9]” the “downregulation of HIF-1α (luminescence normalized for tumor mass, change from baseline)” value [4, 16] was 93%, the “downregulation of HIF-1α (luminescence normalized for tumor mass, change from baseline)” value ([4]; single dose (qd×1, compound 9 30 mg/kg), 48 hours) was 37% and the “downregulation of HIF-1α (luminescence normalized for tumor mass, change from baseline)” value ([4]; single dose (qd×1, compound 9 30 mg/kg), 120 hours) was 83%. For the same compound, the “luminescence (HIF-1-dependent luciferase)” value [4] was “diminished luminescence”, the “expression of HIF-2α protein” value [10] was “inhibited” and the “constitutive HIF-1α protein levels” value ([11]; human neuroblastoma cells, 24 hours (FIG. 14B)) was “decreased”. The “DFX-induced HIF-1α protein levels” value ([11]; pre-incubated with 0.15 mM Desferal 6 hours, then treated 24 hours (FIG. 14C)) was “decreased”, the “Histone H2ax staining in tumor tissues” value [12] was “enhanced” and the “TUNEL staining in tumor tissues (apoptosis)” value [12] was “enhanced”. For the same compound, the “number of allantoic vessels radiating towards the tumor specimen” value [5] was “decreased”, the “number of radiating vessels which invade the tumor specimen” value ([5]; compound 9 compared to CPT-11, P<0.01) was “much less” and the “CD31 expression in primary NB tumors” value [13, 17] was “inhibited”. For the same compound, the “VEGF expression in primary NB tumors” value [13, 17] was “inhibited”, the “number of CD31-positive endothelial cells” value ([13]; compared to mice treated with CAMPTOSAR, P<0.05, 10 mg/kg i.v. q2d×5) was “decreased” and the MMP-2 expression [13, 18] was “inhibited”. For the same compound, the MMP-9 expression [13, 18] was “inhibited” and the tumor mass [6] was “reduced”.
For “^40k4arm-PEG-Met-(20)-(7-ethyl-10-hydroxycamptothecin) [Compound 18]”, the “Doubling Time in Plasma, Mouse” value [7] was 41.9 min, the “Doubling Time in Plasma, Human” value [8] was 22.2 min and the “t1/2 in Human Plasma” value [8] was 0.447 h. The “Solubility in Saline” value [1] was 142 mg/mL and the “Doubling Time in Plasma, Rat” value [9] was 1920 min.
